Each compound was assayed against T1, Recombinant human renin (Homo sapiens, UniProt P00797) (assay: In vitro enzymatic activity assay of renin inhibitors (fluorescence, QXL520/HiLyteFluo488 peptide substrate)). Conditions: recombinant human renin 3 nM, 1 μM substrate, pre-incubated 10 minutes at 37° C., incubation one hour, pH 7.4, 5% DMSO; read-out: IC50 of Exemplified Compounds Against Renin.
T1 construct: isolate the active form (residues 67-406); made in house; host or cells: FreeStyle 293-F cells, transient expression of pcDNA3.1(+)/hREN
T1 sequence (P00797 67-406): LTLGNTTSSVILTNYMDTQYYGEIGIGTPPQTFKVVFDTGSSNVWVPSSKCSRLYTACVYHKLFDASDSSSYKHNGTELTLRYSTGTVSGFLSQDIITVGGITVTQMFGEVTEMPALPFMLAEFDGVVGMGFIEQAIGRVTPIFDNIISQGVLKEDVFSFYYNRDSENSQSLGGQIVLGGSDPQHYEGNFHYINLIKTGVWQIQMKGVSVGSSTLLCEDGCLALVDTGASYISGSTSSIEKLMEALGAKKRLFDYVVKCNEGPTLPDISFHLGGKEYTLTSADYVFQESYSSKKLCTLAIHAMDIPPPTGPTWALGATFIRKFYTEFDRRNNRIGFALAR
Format: biochemical

First: O=C(c1cccc(Cn2c(C(=O)N3CCNCC3)c(-c3ccccc3)n(-c3cccc(N4CCOCC4)c3)c2=O)c1)N1CCOCC1 [Example 57, 1-(3-(Morpholine-4-carbonyl)benzyl)-3-(3-morpholinophenyl)-4-phenyl-5-(piperazine-1-carbonyl)-1H-imidazol-2(3H)-one]
Second: O=C(c1c(-c2ccccc2)n(-c2cccc(N3CCOCC3)c2)c(=O)n1Cc1ccccc1)N1CCNCC1 [Example 56, 1-Benzyl-3-(3-morpholinophenyl)-4-phenyl-5-(piperazine-1-carbonyl)-1H-imidazol-2(3H)-one]
The IC50 of the first is higher: greater than 1000 nM for the first, 100 to 500 nM for the second. The second is the more potent here.

First: COc1cccc(S(=O)(=O)NCCCn2c(C(=O)N3CCNCC3)c(-c3ccccc3)n(-c3cccc(N4CCOCC4)c3)c2=O)c1 [Example 198, 3-Methoxy-N-(3-(3-(3-morpholinophenyl)-2-oxo-4-phenyl-5-(piperazine-1-carbonyl)-2,3-dihydro-1H-imidazol-1-yl)propyl)benzenesulfonamide]
Second: C=CCn1c(C(=O)N2CCNCC2)c(-c2ccccc2)n(-c2cccc(N3CCOCC3)c2)c1=O [Example 150, 1-Allyl-3-(3-morpholinophenyl)-4-phenyl-5-(piperazine-1-carbonyl)-1H-imidazol-2(3H)-one]
The IC50 of the first is lower: 100 to 500 nM for the first, greater than 1000 nM for the second. The first is the more potent here.

First: CCCCN1CCCc2ccc(-n3c(C4CC4)c(C(=O)N4CCNC[C@H]4Cc4ccccc4)[nH]c3=O)cc21 [Example 133, (R)-4-(2-Benzylpiperazine-1-carbonyl)-1-(1-butyl-1,2,3,4-tetrahydroquinolin-7-yl)-5-cyclopropyl-1H-imidazol-2(3H)-one]
Second: COC1CCc2ccc(-n3c(-c4ccccc4)c(C(=O)N4CCNC[C@H]4Cc4ccccc4)[nH]c3=O)cc21 (stereo partly drawn) [Example 138, 4-((R)-2-Benzylpiperazine-1-carbonyl)-1-(3-methoxy-2,3-dihydro-1H-inden-5-yl)-5-phenyl-1H-imidazol-2(3H)-one]
The IC50 of the first is higher: greater than 1000 nM for the first, 100 to 500 nM for the second.

`COCCOc1cccc(-n2c(-c3ccccc3)c(C(=O)N3CCNCC3)[nH]c2=O)c1` [Example 34, 1-(3-(2-Methoxyethoxy)phenyl)-5-phenyl-4-(piperazine-1-carbonyl)-1H-imidazol-2(3H)-one] and `COCCCOc1cccc(-n2c(-c3cccc(Cl)c3)c(C(=O)N3CCNCC3)[nH]c2=O)c1` [Example 42, 5-(3-Chlorophenyl)-1-(3-(3-methoxypropoxy)phenyl)-4-(piperazine-1-carbonyl)-1H-imidazol-2(3H)-one] cannot be ordered by IC50: greater than 1000 nM for the first, greater than 1000 nM for the second.

First: C=CCn1c(C(=O)N2CCNC[C@H]2Cc2ccccc2)c(-c2ccccc2)n(C2CCCCC2)c1=O [Example 64, (R)-1-Allyl-5-(2-benzylpiperazine-1-carbonyl)-3-cyclohexyl-4-phenyl-1H-imidazol-2(3H)-one]
Second: O=C(c1c(-c2ccccc2)n([C@@H]2CCCC[C@H]2O)c(=O)n1Cc1ccccc1)N1CCNCC1 [Example 105, 1-Benzyl-3-((1R,2R)-2-hydroxycyclohexyl)-4-phenyl-5-(piperazine-1-carbonyl)-1H-imidazol-2(3H)-one]
The IC50 of the first is lower: less than 100 nM for the first, greater than 1000 nM for the second.

`Cc1ccccc1-n1c(-c2ccccc2)c(C(=O)N2CCNCC2)n(CCNS(=O)(=O)C(C)C)c1=O` [Example 206, N-(2-(2-Oxo-4-phenyl-5-(piperazine-1-carbonyl)-3-o-tolyl-2,3-dihydro-1H-imidazol-1-yl)ethyl)propane-2-sulfonamide] and `Cc1ccccc1-n1c(-c2ccccc2)c(C(=O)N2CCNCC2)n(CCNS(=O)(=O)c2ccccc2F)c1=O` [Example 203, 2-Fluoro-N-(2-(2-oxo-4-phenyl-5-(piperazine-1-carbonyl)-3-o-tolyl-2,3-dihydro-1H-imidazol-1-yl)ethyl)benzenesulfonamide] fall in the same range of IC50: 500 to 1000 nM for the first, 500 to 1000 nM for the second.

`Cc1ccccc1-n1c(-c2ccccc2)c(C(=O)N2CCNCC2)n(CCCNC(=O)OCc2ccccc2)c1=O` [Example 255, Benzyl 3-(2-oxo-4-phenyl-5-(piperazine-1-carbonyl)-3-o-tolyl-2,3-dihydro-1H-imidazol-1-yl)propylcarbamate] and `Cc1ccccc1-n1c(-c2ccccc2)c(C(=O)N2CCNCC2)n(CCNS(=O)(=O)c2ccc(Cl)cc2)c1=O` [Example 207, 4-Chloro-N-(2-(2-oxo-4-phenyl-5-(piperazine-1-carbonyl)-3-o-tolyl-2,3-dihydro-1H-imidazol-1-yl)ethyl)benzenesulfonamide] cannot be ordered by IC50: greater than 1000 nM for the first, greater than 1000 nM for the second.

`O=C(c1c(-c2ccccc2)n(-c2ccccc2)c(=O)n1Cc1c[nH]cn1)N1CCNCC1` [Example 49, 1-((1H-Imidazol-4-yl)methyl)-3,4-diphenyl-5-(piperazine-1-carbonyl)-1H-imidazol-2(3H)-one] and `Cc1cc(Cn2c(C(=O)N3CCNCC3)c(-c3ccccc3)n(-c3ccccc3)c2=O)no1` [Example 47, 1-((5-Methylisoxazol-3-yl)methyl)-3,4-diphenyl-5-(piperazine-1-carbonyl)-1H-imidazol-2(3H)-one] cannot be ordered by IC50: greater than 1000 nM for the first, greater than 1000 nM for the second.

First: O=C(c1[nH]c(=O)n(-c2ccccc2NS(=O)(=O)C2CC2)c1-c1ccccc1)N1CCNC[C@H]1Cc1ccccc1 [Example 123, (R)—N-(2-(4-(2-Benzylpiperazine-1-carbonyl)-2-oxo-5-phenyl-2,3-dihydro-1H-imidazol-1-yl)phenyl)cyclopropanesulfonamide]
Second: O=C(c1[nH]c(=O)n(-c2ccccc2[N+](=O)[O-])c1-c1ccccc1)N1CCNC[C@H]1Cc1ccccc1 [Example 117, (R)-4-(2-Benzylpiperazine-1-carbonyl)-1-(2-nitrophenyl)-5-phenyl-1H-imidazol-2(3H)-one]
The IC50 of the first is higher: 100 to 500 nM for the first, less than 100 nM for the second.

`O=C(NCCCn1c(C(=O)N2CCNCC2)c(-c2ccccc2)n(C2CCCC[C@@H]2O)c1=O)c1ccccc1` (stereo partly drawn) [Example 170, N-(3-(3-((2S)-2-Hydroxycyclohexyl)-2-oxo-4-phenyl-5-(piperazine-1-carbonyl)-2,3-dihydro-1H-imidazol-1-yl)propyl)benzamide] and `O=C(c1c(-c2ccccc2)n(C2CCOCC2)c(=O)n1Cc1ccccc1)N1CCNCC1` [Example 81, 1-Benzyl-4-phenyl-5-(piperazine-1-carbonyl)-3-(tetrahydro-2H-pyran-4-yl)-1H-imidazol-2(3H)-one] cannot be ordered by IC50: greater than 1000 nM for the first, greater than 1000 nM for the second.

First: O=C(c1c(-c2ccccc2)n(-c2ccccc2)c(=O)n1Cc1cccc(F)c1)N1CCNCC1 [Example 51, 1-(3-Fluorobenzyl)-3,4-diphenyl-5-(piperazine-1-carbonyl)-1H-imidazol-2(3H)-one]
Second: COc1ccccc1-n1c(-c2ccccc2)c(C(=O)N2CCNCC2)n(Cc2ccc(F)c(F)c2)c1=O [Example 148, 1-(3,4-Difluorobenzyl)-3-(2-methoxyphenyl)-4-phenyl-5-(piperazine-1-carbonyl)-1H-imidazol-2(3H)-one]
The IC50 of the first is lower: 100 to 500 nM for the first, greater than 1000 nM for the second.

First: O=C(c1c(-c2ccccc2)n([C@H]2CCCC[C@H]2O)c(=O)n1CC1CCCCC1)N1CCNCC1 [Example 157, 1-(Cyclohexylmethyl)-3-((1S,2R)-2-hydroxycyclohexyl)-4-phenyl-5-(piperazine-1-carbonyl)-1H-imidazol-2(3H)-one]
Second: CC(c1ccccc1)n1c(C(=O)N2CCNCC2)c(-c2ccccc2)n(C2CCCCC2)c1=O (stereo not shown) [Example 69, 1-Cyclohexyl-5-phenyl-3-(1-phenylethyl)-4-(piperazine-1-carbonyl)-1H-imidazol-2(3H)-one]
The IC50 of the first is higher: greater than 1000 nM for the first, 100 to 500 nM for the second. The second is the more potent here.

Compound `O=C(c1[nH]c(=O)n(-c2ccccc2)c1-c1ccccc1)N1CCNCC1` [Example 18, 1,5-Diphenyl-4-(piperazine-1-carbonyl)-1H-imidazol-2(3H)-one] has an IC50 greater than 1000 nM.

Reference: patent US8148367B2 (Takeda Pharmaceutical Company Limited, priority 2008, dated 2012)
